From patent publication US20100144708A1, “HETEROCYCLIC COMPOUNDS CONTAINING NITROGEN ATOMS OR PHARMACEUTICALLY ACCEPTABLE SALTS THEREOF, PROCESS FOR THE PREPARATION THEREOF AND PHARMACEUTICAL COMPOSITION COMPRISING THE SAME FOR TREATMENT OF CANCER” (Korea Research Instititute of Bioscience and Biotechnology, priority 2006, published 2010)

Experiments:
Format in all cases: cell-based, Human
PC-3 (prostate cancer) = assay: Test for inhibition of tumor cell growth (SRB), PC-3; details: Homo sapiens; 48 hours, SRB staining; read-out: GI50 PC-3 (prostate ancer)
Experimental: (§1) Human tumor cell lines, PC-3 (prostate cancer, ATCC, USA), MBA-MB-231 (breast cancer, ATCC, USA), ACHN (kidney cancer, ATCC, USA), and NUGC-3 (gastric cancer, ATCC, USA) were cultured in RPMI 1640 media containing 10% fetal bovine serum (FBS).
(§2) In order to measure anticancer activity, a suitable concentration of cells in RPMI 1640 media containing 5% fetal bovine serum (about 5×10^4 cells/□) was aliquotted in 96-well plates, and cultured in 5% CO2 at 37° C. On day one after aliquoting the cells, before the cells were treated with the compounds, in order to determine their concentration, 50[…] of 50% trichloroacetic acid was added to each well of time zero (T0) plate, and cells were fixed to determine zero point. The cells treated with the compounds were fixed on each well having 50[…] of 50% trichloroacetic acid after 48 hours. The final concentrations of the test compounds were 0.01, 0.03, 0.1, 0.3, and 1[…]/□. The fixed plate was washed with water and dried, and then 100[…] of 0.4% sulphorhodamine B (SRB) dissolved in 0.1% acetic acid was added to the each well to stain the cells. The plate was allowed to stand for 30 minutes, and then washed with 0.1% acetic acid. Then, the plate was dried at room temperature, and treated with 10 mM tris base (pH 10.5) to dissolve staining reagent. An absorbance measured at 540 nm was calculated as a percentage of the control group, and then the concentration of the compound that inhibited tumor cell growth (GI50(□/□)) by 50% was determined.

[1] = tested on: MBA-MB-231 (breast cancer); assay: Test for inhibition of tumor cell growth (SRB), MBA-MB-231; details: Homo sapiens; 48 hours, SRB staining
Experimental: as §1, §2

ACHN (kidney cancer) = assay: Test for inhibition of tumor cell growth (SRB), ACHN; details: Homo sapiens, ACHN; 48 hours, SRB staining
Experimental: as §1, §2

NUGC-3 (gastric cancer) = assay: Test for inhibition of tumor cell growth (SRB), NUGC-3; details: Homo sapiens, NUGC-3; 48 hours, SRB staining
Experimental: as §1, §2

Compound	GI50 (PC-3 (prostate cancer)) [µg/mL]	GI50 [1] [µg/mL]	GI50 (ACHN (kidney cancer)) [µg/mL]	GI50 (NUGC-3 (gastric cancer)) [µg/mL]
CCCCCCCCCCCCCCCCCCS(=O)(=O)N1CC[N+](C)(CC)CC1 [Example 59, 1-ethyl-1-methyl-4-(octadecane-1-sulfonyl)piperazin-1-ium iodide]	0.84	2.05	1.07	0.66
CCCCCCCCCCCCCCS(=O)(=O)N1CC[N+](CC)(Cc2ccc(F)cc2)CC1 [Example 68, 1-ethyl-1-(4-fluorobenzyl)-4-(tetradecane-1-sulfonyl)piperazin-1-ium bromide]	0.71	1.59	1.19	1.05
CCCCCCCCCCCCCCCCCC(=O)N1CC[N+](C)(Cc2ccccc2)CC1 [Example 25, 1-benzyl-1-methyl-4-octadecanoyl-piperazin-1-ium bromide]	0.4	0.82	2.84	1.05
CCCCCCCCCCCCCCCC(=O)N1CC[N+](C)(CC)CC1.[I-] [Example 23, 1-ethyl-4-hexadecanoyl-1-methyl-piperazin-1-ium iodide]	0.8	2.05	1.89	0.58
CCCCCCCCCCS(=O)(=O)N1CC[N+](C)(Cc2ccc(F)cc2)CC1 [Example 86, 4-(decane-1-sulfonyl)-1-(4-fluorobenzyl)-1-methyl-piperazin-1-ium bromide]	0.88	4.48	3.79	1.99
CCCCCCCCCCCCS(=O)(=O)N1CC[N+](C)(Cc2cccc(C)c2)CC1 [Example 108, 4-(dodecane-1-sulfonyl)-1-methyl-1-(3-methylbenzyl)piperazin-1-ium bromide]	0.45	1.19	1.42	0.65
CCCCCCCCCCCCS(=O)(=O)N1CC[N+](CC)(Cc2ccc(F)cc2)CC1 [Example 97, 4-(dodecane-1-sulfonyl)-1-ethyl-1-(4-fluorobenzyl)piperazin-1-ium bromide]	0.7	1.43	1.21	0.66
C=CC[N+]1(CC)CCN(C(=O)CCCCCCCCCCCCCCC)CC1.[Br-] [Example 22, 1-allyl-1-ethyl-4-hexadecanoyl-piperazin-1-ium bromide]	0.37	0.68	0.5	0.27
CCCCCCCCCCCS(=O)(=O)N1CC[N+](C)(Cc2ccc(F)cc2)CC1 [Example 66, 1-(4-fluorobenzyl)-1-methyl-4-(undecane-1-sulfonyl)piperazin-1-ium bromide]	0.56	1.47	1.24	1.06
C=CCCCCCCCCC(=O)N1CC[N+](C)(CC=C)CC1 [Example 43, 1-allyl-1-methyl-4-undec-10-enoyl-piperazin-1-ium bromide]	1.32	> 10	> 10	> 10
CCCCCCCCCCS(=O)(=O)N1CC[N+](CC)(Cc2ccc(F)cc2)CC1 [Example 87, 4-(decane-1-sulfonyl)-1-ethyl-1-(4-fluorobenzyl)-piperazin-1-ium bromide]	1.25	> 10	> 10	1.56
CCCCCCCCCCCCCCCCCCS(=O)(=O)N1CC[N+](C)(Cc2ccc(F)cc2)CC1 [Example 96, 1-(4-fluorobenzyl)-1-methyl-4-(octadecane-1-sulfonyl)piperazin-1-ium bromide]	0.48	0.6	3.25	2.73
C=CC[N+]1(C)CCN(C(=O)CCCCCCCCCCCCCCCCCCCCC)CC1 [Example 36, 1-allyl-4-docosanoyl-1-methylpiperazin-1-ium bromide]	0.96	3.16	2.37	1.53
C=CCC[N+]1(C)CCN(C(=O)CCCCCCCCCCCCCCC)CC1.[Br-] [Example 20, 1-but-3-enyl-4-hexadecanoyl-1-methyl-piperazin-1-ium bromide]	0.67	1.52	1.58	0.72
CCCCCCCCCCCCCCCCCC(=O)N1CC[N+](CC)(Cc2ccccc2)CC1 [Example 28, 1-benzyl-1-ethyl-4-octadecanoyl-piperazin-1-ium bromide]	3.64	> 10	> 10	5.21
C=CCCC[N+]1(CC)CCN(C(=O)CCCCCCCCCCCCCCC)CC1.[Br-] [Example 24, 1-ethyl-4-hexadecanoyl-1-pent-4-enyl-piperazin-1-ium bromide]	0.45	0.76	0.78	0.4

Compound	GI50 (PC-3 (prostate cancer)) [µg/mL]	GI50 [1] [µg/mL]	GI50 (ACHN (kidney cancer)) [µg/mL]	GI50 (NUGC-3 (gastric cancer)) [µg/mL]
CCCCCCCCCCCS(=O)(=O)N1CC[N+](C)(CC)CC1 [Example 93, 1-ethyl-1-methyl-4-(undecane-1-sulfonyl)piperazin-1-ium iodide]	0.67	2.71	1.11	0.62
CCCCCCCCCCCCCCCC(=O)N1CC[N+](C)(Cc2ccc(OC)cc2)CC1.[Cl-] [Example 18, 4-hexadecanoyl-1-(4-methoxy-benzyl)-1-methyl-piperazin-1-ium chloride]	0.49	0.92	1.31	1.16
CCCCCCCCCCCCCCCCCCCCCC(=O)N1CC[N+](CC)(Cc2ccccc2)CC1 [Example 37, 1-benzyl-4-docosanoyl-1-ethylpiperazin-1-ium bromide]	> 10	> 10	> 10	> 10
CCCCCCCCCS(=O)(=O)N1CC[N+](C)(C)CC1 [Example 102, 1,1-dimethyl-4-(nonane-1-sulfonyl)piperazin-1-ium iodide]	> 10	> 10	> 10	> 10
CCCCCCCCCCCCCC(=O)N1CCC[N+](C)(Cc2ccccc2)CC1 (stereo not shown) [Example 124, 1-benzyl-1-methyl-4-tetradecanoyl-1,4-diazepan-1-ium bromide]	0.45	1.16	1	0.31
C=CC[N+]1(C)CCN(C(=O)CCCCCCCCCCCCCCCCC)CC1 [Example 26, 1-allyl-1-methyl-4-octadecanoyl-piperazin-1-ium bromide]	0.54	1.13	1.79	0.88
CCCCCCCCCCCCCCCC(=O)N1CCC[N+](C)(Cc2ccccc2)CC1 (stereo not shown) [Example 125, 1-benzyl-1-methyl-4-palmitoyl-1,4-diazepan-1-ium bromide]	0.35	0.86	0.8	0.53
CCCCCCCCCC(=O)N1CC[N+](C)(Cc2ccccc2)CC1 [Example 8, 1-benzyl-4-decanoyl-1-methyl-piperazin-1-ium bromide]	0.8	> 10	> 10	> 10
CCCCCCCCCCCCCC(=O)N1CCC[N+](C)(Cc2cccc([N+](=O)[O-])c2)CC1 (stereo not shown) [Example 128, 1-methyl-1-(3-nitrobenzyl)-4-tetradecanoyl-1,4-diazepan-1-ium bromide]	0.18	0.71	0.82	0.46
CCCCCCCCCCCCCCCCCC(=O)N1CC[N+](CC)(Cc2cccc([N+](=O)[O-])c2)CC1 [Example 49, 1-ethyl-1-(3-nitrobenzyl)-4-stearoylpiperazin-1-ium bromide]	3.14	5.38	3.08	3.63
C=CC[N+]1(C)CCN(S(=O)(=O)CCCCCCCCCCC)CC1 [Example 112, 1-allyl-1-methyl-4-(undecane-1-sulfonyl)piperazin-1-ium bromide]	0.43	1.75	1.69	1.75
CCCCCCCCCCCCS(=O)(=O)N1CC[N+](C)(Cc2ccc(F)cc2)CC1 [Example 88, 4-(dodecane-1-sulfonyl)-1-(4-fluorobenzyl)-1-methyl-piperazin-1-ium bromide]	0.68	1.59	1.37	0.93
CCCCCCCCCCCCCCCCCCCCCCCC(=O)N1CC[N+](C)(Cc2ccccc2)CC1 [Example 40, 1-benzyl-1-methyl-4-tetracosanoylpiperazin-1-ium bromide]	4.79	> 10	> 10	> 10
C=CC[N+]1(C)CCCN(C(=O)CCCCCCCCCCC)CC1 (stereo not shown) [Example 118, 1-allyl-4-dodecanoyl-1-methyl-1,4-diazepan-1-ium bromide]	0.78	3.84	2.18	0.87
CCCCCCCCCCCCCC(=O)N1CC[N+](C)(CC)CC1 [Example 14, 1-ethyl-1-methyl-4-tetradecanoyl-piperazin-1-ium iodide]	0.57	2.44	2.37	0.54
